Results as given in ChEMBL document CHEMBL3779773, “A unique macrolactam derivative via a [4+6]-cycloaddition from Streptomyces niveus” (Bioorg Med Chem Lett, 2016).
≈ marks a conversion by molar mass, not a printed value. Calls of active or inactive are those of the source. No cut-off for these calls is given here.

Experiments:
[1] = Cytotoxicity against human H460 cells assessed as growth inhibition after 72 hrs by MTT assay; format: functional, cell-based; settings: NCI-H460, 72 h
[2] = Cytotoxicity against human […] cells assessed as growth inhibition after 72 hrs by MTT assay; format: functional, cell-based
[3] = Cytotoxicity against human HELF cells assessed as growth inhibition after 72 hrs by MTT assay; format: cell-based
[4] = Cytotoxicity against human HCT116 cells assessed as growth inhibition after 72 hrs by MTT assay; format: functional, cell-based; settings: HCT-116, 72 h
[5] = Cytotoxicity against human Caco2 cells assessed as growth inhibition after 72 hrs by MTT assay; format: functional, cell-based; settings: Caco-2, 72 h
NCI-H460 [6] = experiment: Cytotoxicity against human H460 cells assessed as cell viability after 24 to 72 hrs by MTT assay; format: functional, cell-based
Aspergillus niger = experiment: Antimicrobial activity against Aspergillus niger by micro dilution method; format: functional, organism-based
HepG2 [7] = experiment: Cytotoxicity against human HepG2 cells assessed as cell viability at 1.2 to 100 uM by MTT assay; format: functional, cell-based; settings: TDE = time-dependent effect
BGC832 [8] = experiment: Cytotoxicity against human […] cells assessed as cell viability after 24 to 72 hrs by MTT assay; format: functional, cell-based
BGC832 [9] = experiment: Cytotoxicity against human […] cells assessed as cell viability at 1.2 to 100 uM by MTT assay; format: functional, cell-based; settings: TDE = time-dependent effect
NCI-H460 [10] = experiment: Cytotoxicity against human H460 cells assessed as cell viability at 1.2 to 100 uM by MTT assay; format: functional, cell-based; settings: TDE = time-dependent effect
HCT-116 [11] = experiment: Cytotoxicity against human HCT116 cells assessed as cell viability at 1.2 to 100 uM by MTT assay; format: functional, cell-based; settings: TDE = time-dependent effect
HCT-116 [12] = experiment: Cytotoxicity against human HCT116 cells assessed as cell viability after 24 to 72 hrs by MTT assay; format: functional, cell-based
Staphylococcus aureus = experiment: Antimicrobial activity against Staphylococcus aureus after 24 hrs using MTT reagent by micro dilution method; format: functional, organism-based
Bacillus subtilis = experiment: Antimicrobial activity against Bacillus subtilis after 24 hrs using MTT reagent by micro dilution method; format: functional
Caco-2 [13] = experiment: Cytotoxicity against human Caco2 cells assessed as cell viability at 1.2 to 100 uM by MTT assay; format: functional, cell-based; settings: TDE = time-dependent effect
HepG2 [14] = experiment: Cytotoxicity against human HepG2 cells assessed as growth inhibition after 72 hrs by MTT assay; format: functional, cell-based; settings: HepG2, 72 h
Escherichia coli = experiment: Antimicrobial activity against Escherichia coli after 24 hrs using MTT reagent by micro dilution method; format: functional, organism-based
Candida albicans = experiment: Antimicrobial activity against Candida albicans by micro dilution method; format: functional, organism-based
HepG2 [15] = experiment: Cytotoxicity against human HepG2 cells assessed as cell viability after 24 to 72 hrs by MTT assay; format: functional, cell-based
Caco-2 [16] = experiment: Cytotoxicity against human Caco2 cells assessed as cell viability after 24 to 72 hrs by MTT assay; format: functional, cell-based
[17] = Acute toxicity in ip dosed mouse; format: organism-based; settings: in vivo

COc1cccc2c1C(=O)c1c(O)c3c(c(O)c1C2=O)C[C@@](O)(C(=O)CO)C[C@@H]3O[C@H]1C[C@H](N)[C@H](O)[C@H](C)O1 [DOXORUBICIN]
IC50 [1]: 0.98 µM
IC50 [2]: 1.48 µM
IC50 [3]: 7.31 µM
IC50 [4]: 0.74 µM
IC50 [5]: 0.96 µM

CCC/C=C/CC1CC(O)[C@@H](O)[C@@H]2/C(C)=C/[C@H]3C=C[C@H]4O[C@H]4[C@@H]3/C(C)=C/C=C\[C@@H]2C(=O)N1 (some centres not stated)
Activity (NCI-H460 [6]): Dose-dependent effect
Activity (Aspergillus niger): inactive
Activity (HepG2 [7]): tde
IC50 [1]: 3.76 µM
Activity (BGC832 [8]): Dose-dependent effect
Activity (BGC832 [9]): tde
Activity (NCI-H460 [10]): tde
Activity (HCT-116 [11]): tde
Activity (HCT-116 [12]): Dose-dependent effect
Activity (Staphylococcus aureus): inactive
MIC (Bacillus subtilis): 43.9 µg/mL (≈ 99.9 µM)
Activity (Caco-2 [13]): tde
IC50 [2]: 13.1 µM
IC50 (HepG2 [14]): 15 µM
IC50 [3]: 46.5 µM
Activity (Escherichia coli): inactive
IC50 ([4]; read-out: IC50): 8.03 µM
Activity (Candida albicans): inactive
Activity (HepG2 [15]): Dose-dependent effect
Activity (Caco-2 [16]): Dose-dependent effect
IC50 [5]: 15 µM

CCCCCCC1CC(=O)CCCC(O)CC(=O)C2=C(O)C(OC3CC(OC)C(O)C(C)O3)CC2\C=C(C)/C=C/C=C/C(=O)N1 (configuration not stated)
LD50 [17]: > 100 mg/kg
